# Source: patent US8722703B2, “Fused amino pyridines for the treatment of brain tumors” (Curis, Inc., priority 2009, dated 2014)
# Read-outs that look alike come from different tables or passages of the source.
# Tests used:
# [1] = PK in mouse brain after i.v. and oral delivery, cassette study in HCT116 tumor-bearing mice; type: in vivo
# [2] = test system: HSP90 client proteins in H1975 subcutaneous tumors; assay: Pharmacodynamic study in H1975 subcutaneous tumors, single dose; type: in vivo; conditions: single dose 160 mg/kg
# MV4-11 AML s.c. tumor = assay: Efficacy study in MV4-11 s.c. tumor model; type: in vivo, sever combined immunodeficient mice; conditions: 160 mg/kg orally q2d, three weeks, pretreatment volume 146 mm^3
# From the text: In an efficacy study using MV4-11 s.c. tumor model (n=8), MV4-11 AML tumor cells (20×10^6) were implanted s.c. into sever combined immunodeficient mice.
# H1975 NSCLC s.c. tumor = assay: Efficacy study in the H1975 s.c. tumor model (160 mg/kg q2d); type: in vivo, nude mice; conditions: 160 mg/kg orally q2d, 3 wk
# Procedure: H1975 NSCLC cells (5×10^6) were implanted s.c. into nude mice. Treatment with Compound-15 (160 mg/kg, orally, q2d) started when tumors reached an average volume of 160 mm^3.
# H1975 NSCLC cells = assay: Western blot of H1975 NSCLC cells after short-term treatment; type: cell-based; conditions: 1 μmol/L for 7 hours
# [3] = test system: H1975 (NSCLC) s.c. tumors; assay: PD study after single oral dosing in H1975 (NSCLC) s.c. tumors; type: in vivo; conditions: single oral dosing 80 mg/kg, 8 h
# A549 subcutaneous tumor = assay: Efficacy study in A549 subcutaneous tumor model; type: in vivo, nude mice; conditions: A549 s.c., 160 mg/kg orally once every two days
# [4] = test system: Colo205 colorectal cancer s.c. tumor; assay: Efficacy study in the Colo205 s.c. tumor model; type: in vivo, nude mice; conditions: 120 mg/kg orally q2d
# [5] = test system: A549 orthotopic lung tumor; assay: Efficacy study in A549 orthotopic lung tumor model; type: in vivo, nude mice; conditions: Compound-15 120 mg/kg orally once every two days, erlotinib 50 mg/kg orally once a day, 4 wk
# [6] = test system: cancer derived HSP90 complex (H1975 NSCLC cell extracts); assay: Fluorescence polarization geldanamycin competition binding with H1975 cell extract
# [7] = test system: H1975 orthotopic lung tumor; assay: Efficacy study in the H1975 orthotopic lung tumor (NSCLC) model; type: in vivo, nude mice
# Procedure: Dose-dependent efficacy study of Compound-15 in H1975 orthotopic lung tumor model (n=11): Mice were treated with Compound-15 (20, 40, 80, and 120 mg/kg) starting 4 day after tumor implantation.
# [8] = test system: HSP90 client proteins in U87MG s.c. tumors; assay: Pharmacodynamic Western blot analysis of U87MG s.c. tumors; type: in vivo, nude mice; conditions: U87MG s.c. tumors, 40, 80 or 160 mg/kg oral every other day, 21 days
# [9] = test system: cancer derived HSP90 complex (H1993 NSCLC cell extracts); assay: Fluorescence polarization geldanamycin competition binding with H1993 cell extract
# [10] = test system: MDA-MB-468 breast cancer orthotopic tumor; assay: Efficacy study in the MDA-MB-468 orthotopic tumor model; type: in vivo, nude mice; conditions: Compound-15 120 mg/kg orally q2d, paclitaxel 12.5 mg/kg i.p. twice weekly
# A549 subcutaneous tumors = assay: Pharmacodynamic study in K-ras-mutated A549 subcutaneous tumors; type: in vivo; conditions: 160 mg/kg, 6- and 24-h time points
# H1975 intracranial tumor = assay: Efficacy study in H1975 intracranial metastasis model; type: in vivo, nude mice; conditions: Compound-15 120 mg/kg orally once every two days, lapatinib 75 mg/kg orally twice a day, 4 wk
# [11] = test system: H1975 orthotopic lung tumors; assay: Pharmacodynamic study in H1975 orthotopic lung tumors; type: in vivo; conditions: 160 mg/kg once
# From the text: Tumors were collected at various time points (n=2-3) and subjected to Western blot analysis.
# H1993 NSCLC cells = assay: Western blot of H1993 NSCLC cells after short-term treatment; type: cell-based; conditions: 1 μmol/L for 7 hours
# H1975 subcutaneous tumor = assay: Efficacy study in the H1975 subcutaneous tumor model (80, 120, 160 mg/kg); type: in vivo, nude mice; conditions: H1975 s.c., 80, 120, or 160 mg/kg orally once every 2 days
# From the text: Cells (3.5×106) were implanted subcutaneously into nude mice.
# [12] = Mouse brain concentrations after oral 30 mg/Kg in nude mice with U87MG xenografts; type: in vivo
# [13] = female, athymic nude (CD-1 nu/nu), mouse, iv, i.v. delivery (Cassette Study), read-out: HSP90 Compounds in Mouse Brain
# [14] = female, athymic nude (CD-1 nu/nu), mouse, oral delivery (10 mg/g Cassette Study), read-out: HSP90 Compounds in Mouse Brain
# [15] = then compound-free medium 0, 17 or 24 hours
smiles,measurement,setting,value
"CN(C)c1cc2c(cc1Sc1nc3c(N)nccc3n1CCNCC(C)(C)C)OCO2 [Compound 15, 2-(6-(dimethylamino)benzo[d][1,3]dioxol-5-ylthio)-1-(2-(neopentylamino)ethyl)-1H-imidazo[4,5-c]pyridin-4-amine]",concentration at 0.08333 hr,"[1]; female, athymic nude (CD-1 nu/nu), mouse, iv, i.v. delivery (Cassette Study), Time 0.08333 hr, read-out: HSP90 Compounds in Mouse Brain",3240 ng/g
same,concentration at 0.5 hr,[1]; [13],1450 ng/g
same,concentration at 2 hr,[1]; [13],773 ng/g
same,concentration at 6 hr,[1]; [13],177 ng/g
same,concentration at 24 hr,[1]; [13],27 ng/g
same,concentration at 48 hr,[1]; [13],4.8 ng/g
same,concentration at 0.5 hr,[1]; [14],61.2 ng/g
same,concentration at 2 hr,[1]; [14],256 ng/g
same,concentration at 6 hr,[1]; [14],218 ng/g
same,concentration at 24 hr,[1]; [14],5.9 ng/g
same,concentration at 48 hr,[1]; [14],0.7 ng/g
same,AUC i.v. in the brain,[1]; i.v.,6761.3 ng·h/g
same,AUC p.o. in the brain,[1]; p.o.,3293.9 ng·h/g
same,F (%) in the brain,[1]; p.o. vs i.v.,24.4%
same,"HSP70, a marker of HSP90 inhibition",[2],concurrent induction
same,HSP90 client proteins in tumors,[2],potent inhibition
same,mutant EGFR,[2],induced degradation
same,apoptosis (PARP and caspase-3 cleavages),[2]; 6- and 24-hour time points,robustly induced apoptosis
same,tumor regression,MV4-11 AML s.c. tumor,complete tumor regression
same,T/C,H1975 NSCLC s.c. tumor,15.4%
same,"downstream PI3K/AKT and RAF/ERK signaling (p-AKT/AKT, p-ERK/ERK levels)",H1975 NSCLC cells,suppressed
same,levels of phosphorylated-MET and total MET,H1975 NSCLC cells,reduced
same,"phosphorylated and total EGFR, MET, AKT, and MAPK (ERK)",H1975 NSCLC cells; [15],durably inhibited
same,EGFR and signaling molecules in tumors (Western blot),[3],inhibited
same,T/C,A549 subcutaneous tumor,9.5%
same,tumor growth,A549 subcutaneous tumor,Tumor stasis
same,T/C,[4],14.2%
same,animal survival,[5],significantly prolonged animal survival
same,IC50,[6],61.2 nM
same,"animal survival, dose dependence","[7]; 20, 40, 80, and 120 mg/kg, 5-wk dosing regimen",dose-dependently extended animal survival
same,animal survival,"[7]; Compound-15 120 mg/kg orally once every two days, erlotinib 50 mg/kg orally once a day, 5 wk",significantly prolonged animal survival
same,HSP90 client proteins in tumors (Western blot),[8],dose-dependent inhibition
same,IC50,[9],74.2 nM
same,tumor regression,[10],3.4%
same,HER2 and key components of the PI3K/AKT and RAF/MEK/ERK signaling pathways (Western blot),A549 subcutaneous tumors,Potent inhibition
same,HSP70 (Western blot),A549 subcutaneous tumors,concurrent induction
same,animal survival,H1975 intracranial tumor,significantly prolonged animal survival
same,"HSP70, apoptosis and phosphorylated-AKT in tumors (Western blot)",[11],Sustained induction of HSP70 and apoptosis and inhibition of oncoprotein phosphorylated-AKT
same,"downstream PI3K/AKT and RAF/ERK signaling (p-AKT/AKT, p-ERK/ERK levels)",H1993 NSCLC cells,suppressed
same,levels of phosphorylated-MET and total MET,H1993 NSCLC cells,reduced
same,"phosphorylated and total EGFR, MET, AKT, and MAPK (ERK)",H1993 NSCLC cells; [15],durably inhibited
same,body weight,H1975 subcutaneous tumor,without significant loss
same,tumor growth,H1975 subcutaneous tumor,Dose-dependent inhibition
same,concentration at 0 hr,"[12]; female, athymic nude (CD-1 nu/nu), mouse, brain, oral (30 mg/Kg) delivery, U87MG xenografts, Time 0 hr, read-out: HSP90 Compounds in Mouse Brain",0 ng/g
same,concentration at 0.5 hr,"[12]; female, athymic nude (CD-1 nu/nu), mouse, brain, oral (30 mg/Kg) delivery, U87MG xenografts, Time 0.5 hr, read-out: HSP90 Compounds in Mouse Brain",66.4 ng/g
same,concentration at 1 hr,"[12]; female, athymic nude (CD-1 nu/nu), mouse, brain, oral (30 mg/Kg) delivery, U87MG xenografts, Time 1 hr, read-out: HSP90 Compounds in Mouse Brain",124 ng/g
same,concentration at 3 hr,"[12]; female, athymic nude (CD-1 nu/nu), mouse, brain, oral (30 mg/Kg) delivery, U87MG xenografts, Time 3 hr, read-out: HSP90 Compounds in Mouse Brain",257 ng/g
same,concentration at 6 hr,"[12]; female, athymic nude (CD-1 nu/nu), mouse, brain, oral (30 mg/Kg) delivery, U87MG xenografts, Time 6 hr, read-out: HSP90 Compounds in Mouse Brain",77.8 ng/g
same,concentration at 24 hr,"[12]; female, athymic nude (CD-1 nu/nu), mouse, brain, oral (30 mg/Kg) delivery, U87MG xenografts, Time 24 hr, read-out: HSP90 Compounds in Mouse Brain",3.2 ng/g
same,crossing (into brain),"[12]; nude mice with U87MG xenografts, oral 30 mg/Kg",superior results
same,AUC in mouse brain,"[12]; oral (30 mg/Kg) delivery, U87MG xenografts",1692.2 ng·h/g
